Here are results for one molecule from PMC7311426, “An amphipathic peptide with antibiotic activity against multidrug-resistant Gram-negative bacteria” (Nature Communications, 2020).

The test system of one assay is P. aeruginosa. Kind of assay: microbe, parasite or virus in culture. To be noted: Pseudomonas aeruginosa, ATCC27853, read-out: MIC against P. aeruginosa (ATCC 27853), as stated for the pneumonia model. The method in brief: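 Broth microdilution in MHB, 2-fold 12-point series from 128 or 64 down to 0.06 or 0.03 μg mL^−1, 5 × 10^5 CFU mL^−1. Extra runs in CAMHB per CLSI and in MHB with 1% agarose; n ≥ 6.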

In another assay the test system is P. aeruginosa ATCC 27853. Nature of the assay: Murine pneumonia model, aerosolized treatment. It is filed as in vivo, P. aeruginosa in CD1 mice. Particulars: lung burden; Tobramycin 4.2mg/mL 20 min; group 9. The procedure: Peritonitis and UTI murine models were performed at the Department of Microbiology & Infection Control, Statens Serum Institute, Copenhagen, Denmark, under approval by the National Committee of Animal Ethics, Denmark, and adhered to the standards of EU Directive 2010/63/EU. The mouse pneumonia model was performed by Evotec Ltd, United Kingdom, under UK Home Office Licenses and with local ethical committee clearance. All animal studies were contracted by Adenium Biotech ApS.
Peptides were prepared in Ringer’s acetate pH 6.0 (vehicle) at 34 mg mL^−1. Comparator antibiotics included meropenem (Meronem®, AstraZeneca), polymyxin B sulfate (Sigma) and tobramycin (Novartis).
P. aeruginosa pneumonia in vivo model was prepared as follows: male CD1 mice were immunosuppressed with cyclophosphamide 200 mg kg^−1 on day −4 and 150 mg kg^−1 on day −1. […] Mouse weights were recorded once-daily following infection to ensure animals remained within ethical limits and to monitor efficacy of treatment. All mice remaining in the study at 34 h post infection were euthanized and the burden of P. aeruginosa in the lungs was determined. […] The lung homogenates were diluted appropriately then quantitatively cultured on to Pseudomonas-selective agar and incubated at 37 °C for 24 h before the number of colonies was counted. […]

Values after ≈ are worked out from the molar mass of the structure shown.

For the molecule `NC[C@H]1O[C@H](O[C@H]2[C@H](O)[C@@H](O[C@H]3O[C@H](CO)[C@@H](O)[C@H](N)[C@H]3O)[C@H](N)C[C@@H]2N)[C@H](N)C[C@@H]1O` [tobramycin], the MIC in the assay with P. aeruginosa is 0.5 to 2 µg/mL (≈ 1.07 to 4.28 µM). Besides, the “Log Group Geometric mean (CFU/g)” value in the assay on P. aeruginosa ATCC 27853 stood at 2.68 CFU/g.
